The values that follow come from patent US20210002262A1, “CYANOPYRROLIDINES AS USP30 INHIBITORS AND FIBROSIS TREATMENT” (MISSION THERAPEUTICS LIMITED, priority 2018, published 2021).

Entries after “also recorded” stand apart in the source; their conditions may differ. A value given as a limit tells only on which side of the number the result lay.

The target of one data set is T1, USP30 (Homo sapiens, UniProt Q70CQ3).
T1 sequence (Q70CQ3 1-517): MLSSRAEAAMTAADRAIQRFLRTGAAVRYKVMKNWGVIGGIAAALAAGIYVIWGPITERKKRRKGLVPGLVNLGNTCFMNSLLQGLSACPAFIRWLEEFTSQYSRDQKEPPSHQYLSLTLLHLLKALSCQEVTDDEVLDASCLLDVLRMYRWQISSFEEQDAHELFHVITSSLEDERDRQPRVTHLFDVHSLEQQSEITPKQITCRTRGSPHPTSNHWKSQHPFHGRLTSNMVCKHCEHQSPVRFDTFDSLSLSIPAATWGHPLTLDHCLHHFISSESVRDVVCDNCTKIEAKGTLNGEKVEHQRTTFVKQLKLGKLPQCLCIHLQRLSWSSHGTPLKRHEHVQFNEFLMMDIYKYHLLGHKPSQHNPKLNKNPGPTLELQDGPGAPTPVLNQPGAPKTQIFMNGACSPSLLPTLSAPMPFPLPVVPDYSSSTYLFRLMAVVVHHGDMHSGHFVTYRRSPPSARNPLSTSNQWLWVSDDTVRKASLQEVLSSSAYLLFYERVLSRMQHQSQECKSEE
The data set is described as follows: USP30 biochemical IC50 assay.
Conditions: not given
As to the method:
Dilution plates were prepared at 21 times the final concentration (2100 μM for a final concentration of 100 μM) in 50% DMSO in a 96-well polypropylene V-bottom plate (Greiner #651201). A typical 8-point dilution series would be 100, 30, 10, 3, 1, 0.3, 0.1, 0.03 μM final. Reactions were performed in duplicate in black 384 well plates (small volume, Greiner 784076) in a final reaction volume of 21 μl. Either 1 μl of 50% DMSO or diluted compound was added to the plate. USP30 was diluted in reaction buffer (40 mM Tris, pH 7.5, 0.005% Tween 20, 0.5 mg/ml BSA, 5 mM beta-mercaptoethanol) to the equivalent of 0.05 μl/well and 10 μl of diluted USP30 was added to the compound. Enzyme and compound were incubated for 30 min at room temp. Reactions were initiated by the addition of 50 nM of TAMRA labelled peptide linked to ubiquitin via an iso-peptide bond as fluorescence polarisation substrate. Reactions were read immediately after addition of substrate and following a 2-hour incubation at room temperature. Readings were performed on a Pherastar Plus (BMG Labtech). λ Excitation 540 nm; λ Emission 590 nm.
On to `C[C@@H]1C(CNC(=O)c2ncn(-c3cccc(C#N)c3)n2)CCN1C#N` (mixture of isomers) [Example 4, N-(((2R,3R)-1-cyano-2-methylpyrrolidin-3-yl)methyl)-1-(3-cyanophenyl)-1H-1,2,4-triazole-3-carboxamide and N-(((2R,3S)-1-cyano-2-methylpyrrolidin-3-yl)methyl)-1-(3-cyanophenyl)-1H-1,2,4-triazole-3-carboxamide], for which the IC50 (as a rule, the concentration that gives 50% inhibition) lay within 10 to 100 nM.

`N#CN1CCC(CNC(=O)c2ncn(-c3ccccc3)n2)C1` (stereo not shown) [Example 3, N-((1-cyanopyrrolidin-3-yl)methyl)-1-phenyl-1H-1,2,4-triazole-3-carboxamide] gave a half-inhibitory concentration (IC50) of 100 to 1000 nM. Still for that read-out and setting: the result for `N#CN1CC[C@H](CNC(=O)c2cn(-c3cccc(Cl)c3)nn2)C1` [Example 6, (R)-1-(3-chlorophenyl)-N-((1-cyanopyrrolidin-3-yl)methyl)-1H-1,2,3-triazole-4-carboxamide] reads 100 to 1000 nM.

`N#CN1CC[C@H](CNC(=O)c2cnn(-c3cccc(Cl)c3)n2)C1` [Example 7, (R)-2-(3-chlorophenyl)-N-((1-cyanopyrrolidin-3-yl)methyl)-2H-1,2,3-triazole-4-carboxamide] yielded an IC50 below 10 nM.

Staying with this data set, now noted: Examples of WO 2017/103614.
As to `N#CN1CC[C@H](CNc2ncc(-c3ccccc3)s2)C1` [Example 9, (R)-3-(((5-phenylthiazol-2-yl)amino)methyl)pyrrolidine-1-carbonitrile], the IC50 is 10 to 100 nM. Same read-out and setting: the result for `N#CN1CCC(CNC(=O)c2cnc(-c3ccccc3)o2)C1` (stereo not shown) [Example 20, N-((1-cyanopyrrolidin-3-yl)methyl)-2-phenyloxazole-5-carboxamide] reads 100 to 1000 nM; that for `N#CN1CCC(CNC(=O)c2cc(-c3ccccc3)no2)C1` (stereo not shown) [Example 21, N-((1-cyanopyrrolidin-3-yl)methyl)-3-phenylisoxazole-5-carboxamide], 100 to 1000 nM; that for `N#CN1CCC(CNC(=O)c2cc(-c3ccccc3)[nH]n2)C1` (stereo not shown) [Example 22, N-((1-cyanopyrrolidin-3-yl)methyl)-5-phenyl-1H-pyrazole-3-carboxamide], 100 to 1000 nM. Same read-out and setting: under `N#CN1CCC(CNC(=O)c2csc(-c3ccccc3)n2)C1` (stereo not shown) [Example 26, N-((1-cyanopyrrolidin-3-yl)methyl)-2-phenylthiazole-4-carboxamide] stands 100 to 1000 nM; under `N#CN1CCC(CNC(=O)c2cc(-c3ccccc3F)n[nH]2)C1` (stereo not shown) [Example 31, N-((1-cyanopyrrolidin-3-yl)methyl)-3-(2-fluorophenyl)-1H-pyrazole-5-carboxamide], 100 to 1000 nM. Still for that read-out and setting: the result for `N#CN1CCC(CNC(=O)c2ncc(-c3ccccc3)o2)C1` (stereo not shown) [Example 38, N-((1-cyanopyrrolidin-3-yl)methyl)-5-phenyloxazole-2-carboxamide] reads 100 to 1000 nM; that for `N#CN1CC[C@H](CNC(=O)c2cc(-c3cccc(Cl)c3)no2)C1` [Example 55, (R)-3-(3-chlorophenyl)-N-((1-cyanopyrrolidin-3-yl)methyl)isoxazole-5-carboxamide], 10 to 100 nM; that for `N#CN1CC[C@H](CNC(=O)c2cc(-c3ccccc3)on2)C1` [Example 58, (R)-N-((1-cyanopyrrolidin-3-yl)methyl)-5-phenylisoxazole-3-carboxamide], 100 to 1000 nM. For the molecule `N#CN1CC[C@H](CNC(=O)c2nc(-c3ccccc3)cs2)C1` [Example 62, (R)-N-((1-cyanopyrrolidin-3-yl)methyl)-4-phenylthiazole-2-carboxamide], the 50% inhibitory concentration (IC50) lay in the range of 100 to 1000 nM. The same measure, in the same setting: under `N#CN1CC[C@H](CNC(=O)c2ccn(-c3ccccc3)n2)C1` [Example 63, (R)-N-((1-cyanopyrrolidin-3-yl)methyl)-1-phenyl-1H-pyrazole-3-carboxamide] stands 100 to 1000 nM. `N#CN1CC[C@H](CNC(=O)c2cnc(-c3ccccc3)[nH]2)C1` [Example 64, (R)-N-((1-cyanopyrrolidin-3-yl)methyl)-2-phenyl-1H-imidazole-5-carboxamide] had an IC50 of 100 to 1000 nM. `N#CN1CC[C@H](CNC(=O)c2cc(-c3ccccc3Cl)no2)C1` [Example 66, (R)-3-(2-chlorophenyl)-N-((1-cyanopyrrolidin-3-yl)methyl)isoxazole-5-carboxamide]: the IC50 is 100 to 1000 nM. On the same count and under the same terms, under `N#CN1CC[C@H](CNC(=O)c2cc(-c3ccc(Cl)cc3)no2)C1` [Example 67, (R)-3-(4-chlorophenyl)-N-((1-cyanopyrrolidin-3-yl)methyl)isoxazole-5-carboxamide] stands 100 to 1000 nM. On the same count and under the same terms, under `N#Cc1cccc(-c2nnc(C(=O)NC[C@@H]3CCN(C#N)C3)o2)c1` [Example 69, (S)-5-(3-cyanophenyl)-N-((1-cyanopyrrolidin-3-yl)methyl)-1,3,4-oxadiazole-2-carboxamide] stands 10 to 100 nM; under `N#Cc1cccc(-n2cnc(C(=O)NC[C@H]3CCN(C#N)C3)c2)c1` [Example 71, (R)-1-(3-cyanophenyl)-N-((1-cyanopyrrolidin-3-yl)methyl)-1H-imidazole-4-carboxamide], 10 to 100 nM.

Molecule `N#Cc1ccc(-n2cnc(C(=O)NC[C@H]3CCN(C#N)C3)c2)cc1` [Example 72, (R)-1-(4-cyanophenyl)-N-((1-cyanopyrrolidin-3-yl)methyl)-1H-imidazole-4-carboxamide] displayed a half-inhibitory concentration (IC50) of 100 to 1000 nM.

In the next data set the test system is Unilateral ureteral obstruction (UUO) kidney fibrosis. In words: Unilateral ureteral obstructive kidney disease model (UUO). It counts as in vivo. The following applies: UUO, 20 mg/kg IN-1130 QD IP, days 0 to 10. An excerpt: In this study, adult C57B16 female mice at 7 to 8 weeks of age with average weight of around 18 to 20 g were used. To complete the ureteral obstruction, the abdominal cavity was exposed via a midline incision and the left ureter was ligated at two points with 4-0 silk and dissected. Successful unilateral ureteral obstruction was later confirmed by observation of dilation of the renal pelvis due to hydronephrosis.
At harvest, mice were anesthetised and both kidneys were harvested; the contralateral kidney serves as control for the UUO kidney. The kidneys were dissected along median line into two parts, of which one side was fixed in formaldehyde, for paraffin embedding and the other was snap frozen for protein or RNA isolation.
Formalin fixed tissue were embedded in paraffin blocks and cut into 5 μm sections. All damaged kidneys, 5 contralateral kidneys from each group and 3 sham kidneys were analysed (in total n=80 kidney samples). Picrosirius Red and α-SMA stain was performed to evaluate fibrotic changes and myofibroblast activation. Analysis was performed by a pathology trained technical staff member, without knowledge of the animal group assignment. High magnification images were taken of each slide an analysed for the surface area covered by the stain.
Molecule `Cc1cccc(-c2[nH]c(Cc3cccc(C(N)=O)c3)nc2-c2ccc3nccnc3c2)n1` [IN-1130, reference compound] gave an In life mortality of 0%.

The subject of the next data set is diet-induced NAFLD/NASH. The data set is described as follows: Diet-induced model of NAFLD/NASH. Particulars: diet-induced NAFLD/NASH, P.O., 8 weeks; Elafibranor 30 mg/kg QD. In kind it is in vivo, mice. As to the method:
Mice were fed Amylin-diet (D09100301, Research Diets, US; 40% fat (18% trans-fat), 40% carbohydrate (20% fructose) and 2% cholesterol) for 37 weeks. Liver biopies were harvested and mice were randomization into treatment groups based on liver Colla1 quantification. Three weeks following biopsy surgery, study animals were dosed orally (P.O.) with either; Vehicle (0.5% HPMC/0.5% PVP/0.1% SDS nanosuspension), MT#1 @ 15 mg/kg QD or MT#1 @ […] QD […] or with Elafibranor @ 30 mg/kg QD (positive control) for eight (8) weeks. A control group of age- and sex-matched mice fed lean chow diet ad libitum were also administered vehicle (P.O) over the same 8 (eight) week period. Following the full dosing schedule, mice were sacrificed, whole livers resected and weighed, fixed in paraformaldehyde before being paraffin embedded. H&E stained slides were then prepared and the average % fractional area of lipid vacuoles (steatosis) determined for each section (@ 20×objective) using Visiomorph software (Visophram, Denmark). The average % fractional area was multiplied by the total liver weight to determine the total liver lipid content per animal. Values expressed as mean of n=9-12+SEM. Dunnett's test one-factor linear model. **: P<0.01, ***: P<0.001 compared to DIO-NASH Vehicle.
Summary of fibrosis stage scores of pre- and post-study liver biopsies harvested from the diet-induced NAFLD/NASH study. Fibrosis stage scores are determined by assessment of picosirius red stained liver sections for relative appearance and location of collagen staining, where; 0=No staining, 1=Perisinusoidal or periportal, 2=Perisinusoidal and periportal and […]=Bridging collagen staining observed. For each group of animals with higher (worsening), same or lower (improvement) in score at post-compared to pre-study is indicated by the height of the bar. One-sided Fisher's exact test with Bonferroni correction. No differences at significance level 0.05.
On to `CSc1ccc(C(=O)/C=C/c2cc(C)c(OC(C)(C)C(=O)O)c(C)c2)cc1` [Elafibranor, reference compound], for which the “fibrotic stage scores (picosirius red stained liver sections, post- compared to pre-study biopsy)” value was “Neither MT#1 or Elafibranor (positive control) significantly improved; also recorded: failed to statistically improve” and the liver steatosis result is given as “significantly reducing”.

For another data set, the system named is Bleomycin-induced lung fibrosis. The data set is described as follows: Bleomycin-induced lung fibrosis model. Particulars: 100 mg/kg pirfenidone BID, oral, days 7 to 21, bleomycin 1.5 U/kg.
Procedure: Treatment group animals (n=10/group) received 1.5 U/kg of clinical bleomycin via oropharyngeal route on day 0 under inhalant anaesthesia. Animals were monitored for tolerance of the bleomycin administration procedure and subsequently bodyweights of all mice were recorded at least 3 times per week during the study. […] All treatments were administered orally.
At day 21, lungs were harvested from each animal and weighed, followed by fixation in 10% neutral buffered formalin (NBF) for histopathological analysis. The lung samples were processed and embedded with all lobes from each mouse in one paraffin block. Coronal sections through the four major lobes were stained with Masson's Trichrome. For each animal, consecutive lung fields were examined at 200×magnification in a raster pattern using a 20×objective lens and a 10×ocular lens. […] The Fibrotic Index was calculated as the sum of the modified Ashcroft field scores divided by the number of fields examined.
The molecule `Cc1ccc(=O)n(-c2ccccc2)c1` [pirfenidone, reference compound] came in with an In life mortality of 0%.
